Results as given in PubChem BioAssay (NCI).
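Exposure lasted 48 hours, with cells grown in 96-well plates and compounds tested at five concentrations. The concentration for 50% growth inhibition is given as GI50. TGI: total growth inhibition.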

Key:
Experiment in all cases: inhibition of tumour cell growth, NCI panel, 48 h
[1] = tested on: 786-0 renal
[2] = tested on: A498 renal
[3] = tested on: A549 NSCLC
[4] = tested on: ACHN renal
[5] = tested on: BT-549 breast
[6] = tested on: CAKI-1 renal
[7] = tested on: CCRF-CEM leukemia
[8] = tested on: COLO 205 colon
[9] = tested on: DU-145 prostate
[10] = tested on: HCT-116 colon
[11] = tested on: HCT-15 colon
[12] = tested on: HL-60(TB) leukemia
[13] = tested on: HOP-62 NSCLC
[14] = tested on: HOP-92 NSCLC
[15] = tested on: HS 578T breast
[16] = tested on: HT29 colon
[17] = tested on: IGROV1 ovarian
[18] = tested on: K-562 leukemia
[19] = tested on: KM12 colon
[20] = tested on: LOX IMVI melanoma
[21] = tested on: M14 melanoma
[22] = tested on: MALME-3M melanoma
[23] = tested on: MCF7 breast
[24] = tested on: MDA-MB-231 breast
[25] = tested on: MDA-MB-435
[26] = tested on: MOLT-4 leukemia
[27] = tested on: NCI-H226 lung
[28] = tested on: NCI-H23 lung
[29] = tested on: NCI-H460 lung
[30] = tested on: NCI-H522 lung
[31] = tested on: NCI/ADR-RES ovarian
[32] = tested on: OVCAR-3 ovarian
[33] = tested on: OVCAR-4 ovarian
[34] = tested on: OVCAR-5 ovarian
[35] = tested on: OVCAR-8 ovarian
[36] = tested on: PC-3 prostate
[37] = tested on: RPMI-8226 leukemia
[38] = tested on: RXF 393 renal
[39] = tested on: SF-268 CNS
[40] = tested on: SF-295 CNS
[41] = tested on: SF-539 CNS
[42] = tested on: SK-MEL-2 melanoma
[43] = tested on: SK-MEL-28 melanoma
[44] = tested on: SK-MEL-5 melanoma
[45] = tested on: SK-OV-3 ovarian
[46] = tested on: SN12C renal
[47] = tested on: SNB-19 CNS
[48] = tested on: SNB-75 CNS
[49] = tested on: SR leukemia
[50] = tested on: SW-620 colon
[51] = tested on: T-47D breast
[52] = tested on: TK-10 renal
[53] = tested on: U251 CNS
[54] = tested on: UACC-257 melanoma
[55] = tested on: UACC-62 melanoma
[56] = tested on: UO-31 renal
[57] = tested on: EKVX NSCLC
[58] = tested on: HCC-2998 colon

CCOC(=O)c1ccc(N=C/C=C(\Nc2ccc(C(=O)OCC)cc2)c2ccc3ccccc3c2)cc1
TGI [1]: 64.1 µM | TGI [2]: > 100 µM | TGI [3]: > 100 µM | TGI [4]: > 100 µM | TGI [5]: 42.4 µM | TGI [6]: 83.8 µM | TGI [7]: 46.5 µM | TGI [8]: 32.6 µM | TGI [9]: > 100 µM | TGI [10]: > 100 µM | TGI [11]: 61.1 µM | TGI [12]: 70.8 µM | TGI [13]: 95.8 µM | TGI [14]: > 100 µM | TGI [15]: 96.3 µM | TGI [16]: 49 µM | TGI [17]: > 100 µM | TGI [18]: 56.7 µM | TGI [19]: 48.2 µM | TGI [20]: 34.4 µM | TGI [21]: 59 µM | TGI [22]: 43.6 µM | TGI [23]: 67 µM | TGI [24]: 80.6 µM | TGI [25]: 33.3 µM | TGI [26]: 16.1 µM | TGI [27]: 96.9 µM | TGI [28]: 54 µM | TGI [29]: > 100 µM | TGI [30]: > 100 µM | TGI [31]: 70.3 µM | TGI [32]: 83.5 µM | TGI [33]: 80.3 µM | TGI [34]: > 100 µM | TGI [35]: > 100 µM | TGI [36]: > 100 µM | TGI [37]: 52.1 µM | TGI [38]: 57.3 µM | TGI [39]: > 100 µM | TGI [40]: > 100 µM | TGI [41]: 39.2 µM | TGI [42]: 66.9 µM | TGI [43]: 61.1 µM | TGI [44]: 34.7 µM | TGI [45]: > 100 µM | TGI [46]: 58.6 µM | TGI [47]: > 100 µM | TGI [48]: > 100 µM | TGI [49]: 41.6 µM | TGI [50]: > 100 µM | TGI [51]: 43.2 µM | TGI [52]: 53.4 µM | TGI [53]: > 100 µM | TGI [54]: 92.3 µM | TGI [55]: 30.5 µM | TGI [56]: > 100 µM

COc1ccc(C2CC(c3cc(OC)c(OC)c(OC)c3)=NN2)cc1 (stereo not drawn)
GI50 [1]: 20.7 µM | TGI [1]: > 100 µM | GI50 [2]: 5.99 µM | TGI [2]: 47.6 µM | GI50 [3]: 6.23 µM | TGI [3]: > 100 µM | GI50 [4]: 26.2 µM | TGI [4]: > 100 µM | GI50 [5]: 8.02 µM | TGI [5]: > 100 µM | GI50 [6]: 7.39 µM | TGI [6]: 63.5 µM | GI50 [7]: 6.34 µM | TGI [7]: > 100 µM | GI50 [8]: 4 µM | TGI [8]: 31 µM | GI50 [9]: 33.9 µM | TGI [9]: > 100 µM | GI50 [57]: 9.26 µM | TGI [57]: > 100 µM | GI50 [58]: 9.35 µM | TGI [58]: 37.2 µM | GI50 [10]: 3.93 µM | TGI [10]: > 100 µM | GI50 [11]: 3.48 µM | TGI [11]: > 100 µM | GI50 [12]: 2.19 µM | TGI [12]: 12 µM | GI50 [13]: 28.7 µM | TGI [13]: 99.2 µM | GI50 [14]: 20.1 µM | TGI [14]: > 100 µM | GI50 [15]: 14.4 µM | TGI [15]: 98.3 µM | GI50 [16]: 3.91 µM | TGI [16]: > 100 µM | GI50 [17]: 5.98 µM | TGI [17]: > 100 µM | GI50 [18]: 2.66 µM | TGI [18]: > 100 µM | GI50 [19]: 4.49 µM | TGI [19]: > 100 µM | GI50 [20]: 5.52 µM | TGI [20]: > 100 µM | GI50 [21]: 13.3 µM | TGI [21]: > 100 µM | GI50 [22]: 24.7 µM | TGI [22]: > 100 µM | GI50 [23]: 2.78 µM | TGI [23]: 27.1 µM | GI50 [24]: 22.5 µM | TGI [24]: > 100 µM | GI50 [25]: 2.96 µM | TGI [25]: 20.9 µM | GI50 [26]: 4.76 µM | TGI [26]: 25 µM | GI50 [27]: 23.8 µM | TGI [27]: > 100 µM | GI50 [28]: 12.9 µM | TGI [28]: > 100 µM | GI50 [29]: 3.47 µM | TGI [29]: 30.1 µM | GI50 [30]: 3.43 µM | TGI [30]: 35.9 µM | GI50 [31]: 6.67 µM | TGI [31]: 94.8 µM | GI50 [32]: 3.74 µM | TGI [32]: 55.3 µM | GI50 [33]: 12.8 µM | TGI [33]: > 100 µM | GI50 [34]: 49.3 µM | TGI [34]: > 100 µM | GI50 [35]: 28.4 µM | TGI [35]: > 100 µM | GI50 [36]: 6.03 µM | TGI [36]: > 100 µM | GI50 [37]: 3.23 µM | TGI [37]: 18.6 µM | GI50 [38]: 9.71 µM | TGI [38]: 92 µM | GI50 [39]: 20 µM | TGI [39]: > 100 µM | GI50 [40]: 4.99 µM | TGI [40]: > 100 µM | GI50 [41]: 5.88 µM | TGI [41]: 36.6 µM | GI50 [43]: 38.7 µM | TGI [43]: > 100 µM | GI50 [44]: 4.29 µM | TGI [44]: 17.8 µM | GI50 [45]: 12.4 µM | TGI [45]: > 100 µM | GI50 [46]: 31.4 µM | TGI [46]: > 100 µM | GI50 [47]: 15.6 µM | TGI [47]: > 100 µM | GI50 [49]: 1.01 µM | TGI [49]: 4.43 µM | GI50 [50]: 4.58 µM | TGI [50]: > 100 µM | GI50 [51]: 3.61 µM | TGI [51]: > 100 µM | GI50 [52]: 42 µM | TGI [52]: > 100 µM | GI50 [53]: 4.52 µM | TGI [53]: > 100 µM | GI50 [54]: 43.4 µM | TGI [54]: > 100 µM | GI50 [55]: 7.63 µM | TGI [55]: > 100 µM | GI50 [56]: 4.82 µM | TGI [56]: > 100 µM
